The values below come from ChEMBL document CHEMBL1147445, “Antagonists of human CCR5 receptor containing 4-(pyrazolyl)piperidine side chains. Part 2: Discovery of potent, selective, and orally bioavailable compounds” (Bioorg Med Chem Lett, 2004).

For data set [1], the target named is T1, C-C chemokine receptor type 5 (Homo sapiens, UniProt P51681). Description: Displacement of [125I]-MIP-1 alpha from human […] chemokine receptor 5 expressed in CHO cells. In kind it is cell-based.
Data set [2] can be described thus: in vivo. The following applies: rat.
In data set [3] the test system is Rattus norvegicus. Description: Area under curve in rat after p.o. administration. The following applies: in vivo, po.
Another data set deals with HeLa. Description: In vitro antiviral activity against HIV-1 infected HeLa cells. The following applies: Homo sapiens. In kind it is functional.
Data set [4] is described as follows: in vivo. Conditions: rat, plasma.
Data set [5] in a line: Oral bioavailability in rat. Conditions: in vivo.
Data set [6] can be described thus: Clearance rat (dosed at 0.5 mpk IV and 2.0 mpk po.). In kind it is ADME, organism-based. Conditions: plasma, 0.5 mg/kg, read-out: Clp.
The nature of data set [7]: Inhibition of HIV-1 infectivity using peripheral bloodmonon uclear cells against the BAL-1 strain in the presence of 50% normal human serum (NHS). In kind it is functional.
Data set [8] is described as follows: Inhibition of HIV-1 infectivity using peripheral bloodmonon uclear cells against the BAL-1 strain. It counts as functional. Conditions: Homo sapiens.
The subject of data set [9] is Rattus norvegicus. In words: Volumes of distribution in rat after po administration. Conditions: in vivo.
In data set [10] the target is T1, C-C chemokine receptor type 5. In words: Inhibitory concentration of compound to displace GP120 from […] chemokine receptor 5.
Data set [11] concerns Rattus norvegicus. Description: Area under curve in rat after peroral administration. It counts as ADME, organism-based. The following applies: in vivo, po.
Data set [12] concerns the target T1, C-C chemokine receptor type 5. In words: Inhibitory concentration of compound to displace GP120 from […] chemokine receptor 5. This is another data set of the same source.
The test system of another data set is Canis familiaris. In words: Oral AUCN in dog (dosed at 2.0 mpk po ). Conditions: in vivo, 2.0 mg/kg.
A short description of data set [13]: Half life in dog (dosed at 0.5 mpk iv and 2.0 mpk orally). It counts as ADME, organism-based, Canis lupus familiaris. The following applies: in vivo.
The nature of data set [14]: Oral bioavailability in dog (dose 0.5 mg/kg i.v. and 2.0 mg/kg p.o.). Conditions: in vivo. In kind it is ADME, organism-based, Canis lupus familiaris.
Data set [15] in a line: Plasma clearance in dog (dosed at 0.5 mpk iv and 2.0 mpk orally). In kind it is ADME, organism-based, Canis lupus familiaris. The following applies: 0.5 mg/kg, read-out: Clp.
Data set [16] can be described thus: Oral bioavailability in monkey (dosed at 0.5 mpk iv and 2.0 mpk orally). It counts as ADME, organism-based. The following applies: cercopithecidae, in vivo, 2 mg/kg.
A short description of data set [17]: Half life in monkey (dosed at 0.5 mpk iv and 2.0 mpk orally). The following applies: cercopithecidae, in vivo. In kind it is ADME, organism-based.
Data set [18] is described as follows: Plasma clearance in monkey (dosed at 0.5 mpk iv and 2.0 mpk orally). It counts as ADME, organism-based. The following applies: cercopithecidae, 0.5 mg/kg, read-out: Clp.
A short description of data set [19]: Oral AUCN in monkey (dosed at 0.5 mpk iv ). It counts as ADME, organism-based. The following applies: cercopithecidae, in vivo, 0.5 mg/kg.

T1 sequence (P51681 whole entry): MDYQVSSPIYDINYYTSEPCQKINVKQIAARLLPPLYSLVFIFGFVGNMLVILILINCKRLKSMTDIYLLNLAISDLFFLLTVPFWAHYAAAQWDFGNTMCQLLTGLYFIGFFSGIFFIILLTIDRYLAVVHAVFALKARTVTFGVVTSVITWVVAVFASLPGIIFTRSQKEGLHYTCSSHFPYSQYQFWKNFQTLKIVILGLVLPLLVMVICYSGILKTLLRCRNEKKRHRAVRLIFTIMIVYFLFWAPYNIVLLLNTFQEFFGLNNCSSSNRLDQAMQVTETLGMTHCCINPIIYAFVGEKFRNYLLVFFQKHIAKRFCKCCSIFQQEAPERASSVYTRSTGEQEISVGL

A word on the IC50: it is the concentration that gives 50% inhibition. The term half-life denotes the time in which the quantity being followed falls by half. As usually defined, the IC90 is the concentration at which the effect reaches the 90% level. The term bioavailability denotes dose-corrected exposure relative to a reference, in per cent. In data set [1], `CC[C@@H](C)[C@H](C(=O)O)N1C[C@H](CN2CCC(c3cc(Cc4ccccc4)nn3CC)CC2)[C@@H](c2cccc(F)c2)C1` came in with an IC50 of 0.8 nM. In “in vivo [2]”, this molecule gave a half-life of 32.4 min. In the data set on Rattus norvegicus [3], the “AUC N” value turned out to be 0.16 uM hr dose-1. This molecule also yielded an IC90 in the data set with HeLa of less than 0.14 nM. Besides, the clearance in “in vivo [4]” came out at 25 mL/min/kg. In data set [5], this molecule had a bioavailability of 13%.

By IC95 is commonly meant the concentration needed for an effect of 95%. Take `CCn1nc(Cc2ccccc2)cc1C1CCN(C[C@H]2CN([C@H](CC3CCC3)C(=O)O)C[C@@H]2c2cccc(F)c2)CC1`: in data set [6], the clearance is 46 mL/min/kg. Moreover, in data set [1], the IC50 was 1.2 nM. For the same molecule, the IC95 in data set [7] was 35 nM; in [8] it was less than 0.8 nM. The molecule further gave a half-life in “in vivo [2]” of 42.6 min. Also, the “AUC N” value with Rattus norvegicus [3] turned out to be 0.05 uM hr dose-1. This molecule also registered an IC90 in the data set on HeLa of 0.4 nM. The same molecule yielded a bioavailability in data set [5] of 7.3%.

Consider `CCn1nc(Cc2ccccc2)cc1C1CCN(C[C@H]2CN([C@H](CC3CC3)C(=O)O)C[C@@H]2c2cccc(F)c2)CC1`, for which the clearance in [6] came out at 81 mL/min/kg. The molecule further came in with an IC50 in data set [1] of 1.2 nM. Further, the IC95 in data set [7] was 31 nM; in data set [8] it was less than 8 nM. This molecule also gave a half-life in the data set “in vivo [2]” of 15 min. In addition, the “AUC N” value in the data set on Rattus norvegicus [3] was 0.03 uM hr dose-1. The IC90 in the data set on HeLa worked out at 0.4 nM. In data set [5], this molecule returned a bioavailability of 8.1%.

As for `CCn1nc(Cc2ccccc2)cc1C1CCN(C[C@H]2CN([C@](C)(C(=O)O)C(C)C)C[C@@H]2c2cccc(F)c2)CC1`, the IC50 in data set [1] amounted to 5.5 nM. In “in vivo [2]”, this molecule gave a half-life of 44.4 min. Moreover, the “AUC N” value in the data set with Rattus norvegicus [3] was determined as 0.62 uM hr dose-1. In addition, the 90% effect concentration (IC90) in the data set with HeLa was more than 300 nM. In the data set on Rattus norvegicus [9], the Vdss was 0.43 L/kg. Also, in “in vivo [4]”, the clearance worked out at 10 mL/min/kg. The molecule also gave a bioavailability in data set [5] of 21%.

In [1], `CCC(CC)[C@H](C(=O)O)N1C[C@H](CN2CCC(c3cc(Cc4ccccc4)nn3CC)CC2)[C@@H](c2cccc(F)c2)C1` had an IC50 of 0.9 nM. The same molecule showed a half-life in “in vivo [2]” of 35.4 min. Besides, the “AUC N” value in the data set with Rattus norvegicus [3] is reported as 0.8 uM hr dose-1. This molecule also gave an IC90 in the data set on HeLa of 0.4 nM. This molecule registered a clearance in “in vivo [4]” of 19 mL/min/kg. In [5], this molecule had a bioavailability of 52%.

As to `CCn1nc(Cc2ccccc2)cc1C1CCN(C[C@H]2CN([C@@](C)(C(=O)O)C(C)C)C[C@@H]2c2cccc(F)c2)CC1`, in data set [1], the IC50 is 1.6 nM. Besides, the IC90 with HeLa came to 300 nM.

In data set [10], `CCn1nc(Cc2ccccc2)cc1C1CCN(C[C@H]2CN([C@@H](C(=O)O)C3CCCCC3)C[C@@H]2c2ccccc2)CC1` came in with an IC50 of 2 nM. The IC95 in data set [7] and in data set [8] was less than 8 nM in each case. Moreover, in the data set with HeLa, it took 0.4 nM to reach the 90% level (IC90). In addition, in the data set with Rattus norvegicus [11], the “AUC N” value was found to be 0.02 uM hr dose-1.

Turning to `CCn1nc(Cc2ccccc2)cc1C1CCN(C[C@H]2CN([C@@H](C(=O)O)C3CCC3)C[C@@H]2c2ccccc2)CC1`, in data set [6], the clearance is 60 mL/min/kg. This molecule also came in with an IC50 in data set [1] of 1.6 nM. This molecule had a half-life in “in vivo [2]” of 60 min. The “AUC N” value in the data set with Rattus norvegicus [3] was found to be 0.06 uM hr dose-1. Also, in the data set on HeLa, the IC90 was 3.7 nM. The molecule further returned a bioavailability in data set [5] of 11%.

On to `CCn1nc(Cc2ccccc2)cc1C1CCN(C[C@H]2CN([C@H](CC(C)C)C(=O)O)C[C@@H]2c2ccccc2)CC1`, for which the IC95 in data set [7] is 125 nM; in [8], less than 8 nM. The molecule further had a half-life in the data set “in vivo [2]” of 72 min. The “AUC N” value in the data set with Rattus norvegicus [3] is on record as 0.13 uM hr dose-1. Also, the IC90 in the data set on HeLa came out at 3.7 nM. The Vdss in the data set with Rattus norvegicus [9] was 2.1 L/kg. In the data set “in vivo [4]”, the clearance is 43 mL/min/kg. The IC50 in [12] was found to be 2.9 nM. The molecule also gave a bioavailability in [5] of 17%.

Regarding `CCn1nc(Cc2ccccc2)cc1C1CCN(C[C@H]2CN([C@@H](C(=O)O)C(C)C)C[C@@H]2c2ccccc2)CC1`, in data set [6], the clearance was 12.6 mL/min/kg. This molecule showed a half-life in “in vivo [2]” of 336 min. Also, the “AUC N” value in the data set on Rattus norvegicus [3] stood at 0.45 uM hr dose-1. Further, it took 11 nM to reach the 90% level in the data set with HeLa (IC90). Further, the IC50 in data set [12] worked out at 2.8 nM. Also, the bioavailability in data set [5] stood at 17%.

For the molecule `CCn1nc(Cc2ccccc2)cc1C1CCN(C[C@H]2CN([C@@H](C(=O)O)C(C)(C)C)C[C@@H]2c2cccc(F)c2)CC1`, in [1], the IC50 worked out at 0.8 nM. Further, the half-life was 47.4 min in “in vivo [2]” and 38.4 min in data set [13]. For the same molecule, the “AUC N” value in the data set on Canis familiaris was 1 uM hr dose-1; in the data set with Rattus norvegicus [3], 3.7 uM hr dose-1. The IC90 in the data set with HeLa was less than 0.14 nM. For the same molecule, the clearance in “in vivo [4]” is 5.7 mL/min/kg; in data set [15], 13 mL/min/kg. The bioavailability in data set [14] came out at 44%; in data set [5] it was 71%.

With `CCn1nc(Cc2ccccc2)cc1C1CCN(C[C@H]2CN([C@@H](C(=O)O)C(C)C)C[C@@H]2c2cccc(F)c2)CC1`, the bioavailability in data set [16] worked out at 4.7%; in data set [14], 20%; in data set [5], 11%. Moreover, the IC50 in data set [1] was 1.5 nM. Moreover, the IC95 in data set [7] stood at 350 nM; in data set [8] it was 22 nM. The half-life in “in vivo [2]” was 84 min; in data set [17], 78 min; in data set [13], 204 min. For the same molecule, the “AUC N” value with Canis familiaris is 1.9 uM hr dose-1; in the data set on Rattus norvegicus [3], 1.1 uM hr dose-1; in data set [19] it was 0.08 uM hr dose-1. In the data set with HeLa, this molecule yielded an IC90 of 3.7 nM. Also, the clearance in “in vivo [4]” amounted to 3.2 mL/min/kg; in data set [18] it was 20 mL/min/kg; in data set [15], 3.5 mL/min/kg.

`CC[C@H](C)[C@H](C(=O)O)N1C[C@H](CN2CCC(c3cc(Cc4ccccc4)nn3CC)CC2)[C@@H](c2cccc(F)c2)C1` showed an IC50 in data set [1] of 0.9 nM. The molecule further came in with an IC90 with HeLa of 0.4 nM.

`CCn1nc(Cc2ccccc2)cc1C1CCN(C[C@H]2CN([C@@H](C(=O)O)C3CCCCC3)C[C@@H]2c2cccc(F)c2)CC1` registered an IC50 in data set [1] of 1.6 nM. In the data set with HeLa, this molecule came in with an IC90 of 0.4 nM.
